{"source": "patent US9850256B2", "about": "“Antibacterial basic biaromatic derivatives with aminoalkoxy substitution” (priority 2014, dated 2017)", "test_in_all_cases": "Bacterial growth minimal inhibitory concentration (microdilution, cation-adjusted Mueller-Hinton Broth)", "key": {"S. aureus A798": {"tested_on": "S. aureus A798", "type": "cell-based, Staphylococcus aureus", "conditions": "Staphylococcus aureus, A798; multiply-resistant strain (methicillin- and quinolone-resistant)", "protocol": "(§1) Minimal Inhibitory Concentrations (MICs; mg/L) were determined in cation-adjusted Mueller-Hinton Broth by a microdilution method following the description given in “Methods for Dilution Antimicrobial Susceptibility Tests for Bacteria that Grow Aerobically”, Approved standard, 7th ed., Clinical and Laboratory Standards Institute (CLSI) Document M7-A7, Wayne, Pa., USA (2006).\n(§2) All Example compounds were tested against several Gram positive and Gram negative bacteria. […] Staphylococcus aureus A798 is a multiply-resistant strain (methicillin- and quinolone-resistant), Klebsiella pneumoniae T6474 is a multiply-resistant strain (penicillin-, cephalosporin- and in particular quinolone-resistant), while E. coli ATCC25922 and Pseudomonas aeruginosa ATCC 27853 are quinolone-sensitive strains."}, "K. pneumoniae T6474": {"tested_on": "K. pneumoniae T6474", "type": "cell-based, Klebsiella pneumoniae", "conditions": "Klebsiella pneumoniae, T6474; multiply-resistant strain (penicillin-, cephalosporin- and quinolone-resistant)", "protocol": "as §1, §2"}, "P. aeruginosa ATCC 27853": {"tested_on": "P. aeruginosa ATCC 27853", "type": "cell-based, Pseudomonas aeruginosa", "conditions": "Pseudomonas aeruginosa, ATCC27853; quinolone-sensitive strain", "protocol": "as §1, §2"}, "E. coli ATCC25922": {"tested_on": "E. coli ATCC25922", "type": "cell-based", "conditions": "Escherichia coli, ATCC25922; quinolone-sensitive strain", "protocol": "as §1, §2"}}}
{"molecule": "CN1CC[C@@H](Oc2cccc(-c3cccc(CNCC[C@H]4CN(c5ccc6c(n5)NC(=O)CO6)C(=O)O4)c3)n2)C1", "note": "[Example $120, 6-[(S)-5-(2-{3-[6-((R)-1-methyl-pyrrolidin-3-yloxy)-pyridin-2-yl]-benzylamino}-ethyl)-2-oxo-oxazolidin-3-yl]-4H-pyrido[3,2-b][1,4]oxazin-3-one]", "values": [{"measurement": "MIC", "setting": "S. aureus A798", "value": 0.5, "unit": "µg/mL"}, {"measurement": "MIC", "setting": "K. pneumoniae T6474", "value": 2, "unit": "µg/mL"}, {"measurement": "MIC", "setting": "P. aeruginosa ATCC 27853", "value": 2, "unit": "µg/mL"}, {"measurement": "MIC", "setting": "E. coli ATCC25922", "value": 1, "unit": "µg/mL"}]}
{"molecule": "CN1CC[C@H](Oc2cccc(-c3cccc(CNCC[C@H]4CN(c5ccc6c(n5)NC(=O)CO6)C(=O)O4)c3)n2)C1", "note": "[Example $121, 6-[(S)-5-(2-{3-[6-((S)-1-methyl-pyrrolidin-3-yloxy)-pyridin-2-yl]-benzylamino}-ethyl)-2-oxo-oxazolidin-3-yl]-4H-pyrido[3,2-b][1,4]oxazin-3-one]", "values": [{"measurement": "MIC", "setting": "S. aureus A798", "value": 0.25, "unit": "µg/mL"}, {"measurement": "MIC", "setting": "K. pneumoniae T6474", "value": 0.5, "unit": "µg/mL"}, {"measurement": "MIC", "setting": "P. aeruginosa ATCC 27853", "value": 1, "unit": "µg/mL"}, {"measurement": "MIC", "setting": "E. coli ATCC25922", "value": 0.5, "unit": "µg/mL"}]}
{"molecule": "CN1CC(Oc2cccc(-c3cccc(CNCC[C@H]4CN(c5ccc6c(n5)NC(=O)CO6)C(=O)O4)c3)n2)C1", "note": "[Example $122, 6-[(S)-5-(2-{3-[6-(1-methyl-azetidin-3-yloxy)-pyridin-2-yl]-benzylamino}-ethyl)-2-oxo-oxazolidin-3-yl]-4H-pyrido[3,2-b][1,4]oxazin-3-one]", "values": [{"measurement": "MIC", "setting": "S. aureus A798", "value": 0.25, "unit": "µg/mL"}, {"measurement": "MIC", "setting": "K. pneumoniae T6474", "value": 0.5, "unit": "µg/mL"}, {"measurement": "MIC", "setting": "P. aeruginosa ATCC 27853", "value": 0.5, "unit": "µg/mL"}, {"measurement": "MIC", "setting": "E. coli ATCC25922", "value": 0.25, "unit": "µg/mL"}]}
{"molecule": "CN1CC[C@H]1COc1cccc(-c2cccc(CNCC[C@H]3CN(c4ccc5c(n4)NC(=O)CO5)C(=O)O3)c2)n1", "note": "[Example $123, 6-[(S)-5-(2-{3-[6-((S)-1-methyl-azetidin-2-ylmethoxy)-pyridin-2-yl]-benzylamino}-ethyl)-2-oxo-oxazolidin-3-yl]-4H-pyrido[3,2-b][1,4]oxazin-3-one]", "values": [{"measurement": "MIC", "setting": "S. aureus A798", "value": 0.25, "unit": "µg/mL"}, {"measurement": "MIC", "setting": "K. pneumoniae T6474", "value": 1, "unit": "µg/mL"}, {"measurement": "MIC", "setting": "P. aeruginosa ATCC 27853", "value": 1, "unit": "µg/mL"}, {"measurement": "MIC", "setting": "E. coli ATCC25922", "value": 1, "unit": "µg/mL"}]}
{"molecule": "O=C1COc2ccc(N3C[C@H](CCNCc4cccc(-c5cccc(OC[C@H]6CCN6)n5)c4)OC3=O)nc2N1", "note": "[Example $124, 6-[(S)-5-(2-{3-[6-((R)-1-azetidin-2-ylmethoxy)-pyridin-2-yl]-benzylamino}-ethyl)-2-oxo-oxazolidin-3-yl]-4H-pyrido[3,2-b][1,4]oxazin-3-one]", "values": [{"measurement": "MIC", "setting": "S. aureus A798", "value": 1, "unit": "µg/mL"}, {"measurement": "MIC", "setting": "K. pneumoniae T6474", "value": 2, "unit": "µg/mL"}, {"measurement": "MIC", "setting": "P. aeruginosa ATCC 27853", "value": 0.5, "unit": "µg/mL"}, {"measurement": "MIC", "setting": "E. coli ATCC25922", "value": 1, "unit": "µg/mL"}]}
{"molecule": "CN1CC[C@@H]1COc1cccc(-c2cccc(CNCC[C@H]3CN(c4ccc5c(n4)NC(=O)CO5)C(=O)O3)c2)n1", "note": "[Example $125, 6-[(S)-5-(2-{3-[6-((R)-1-methyl-azetidin-2-ylmethoxy)-pyridin-2-yl]-benzylamino}-ethyl)-2-oxo-oxazolidin-3-yl]-4H-pyrido[3,2-b][1,4]oxazin-3-one]", "values": [{"measurement": "MIC", "setting": "S. aureus A798", "value": 0.5, "unit": "µg/mL"}, {"measurement": "MIC", "setting": "K. pneumoniae T6474", "value": 2, "unit": "µg/mL"}, {"measurement": "MIC", "setting": "P. aeruginosa ATCC 27853", "value": 4, "unit": "µg/mL"}, {"measurement": "MIC", "setting": "E. coli ATCC25922", "value": 1, "unit": "µg/mL"}]}
{"molecule": "CN1CCC(Oc2cccc(-c3cccc(CNCC[C@H]4CN(c5ccc6c(n5)NC(=O)CO6)C(=O)O4)c3)n2)CC1", "note": "[Example $127, 6-[(S)-5-(2-{3-[6-(1-methyl-piperidin-4-yloxy)-pyridin-2-yl]-benzylamino}-ethyl)-2-oxo-oxazolidin-3-yl]-4H-pyrido[3,2-b][1,4]oxazin-3-one]", "values": [{"measurement": "MIC", "setting": "S. aureus A798", "value": 1, "unit": "µg/mL"}, {"measurement": "MIC", "setting": "K. pneumoniae T6474", "value": 8, "unit": "µg/mL"}, {"measurement": "MIC", "setting": "P. aeruginosa ATCC 27853", "value": 4, "unit": "µg/mL"}, {"measurement": "MIC", "setting": "E. coli ATCC25922", "value": 2, "unit": "µg/mL"}]}
{"molecule": "CN1CC[C@H](Oc2cccc(-c3ccnc(CNCC[C@H]4CN(c5ccc6c(n5)NC(=O)CO6)C(=O)O4)c3)n2)C1", "note": "[Example $128, 6-[(S)-5-(2-{[6-((S)-1-methyl-pyrrolidin-3-yloxy)-[2,4′]bipyridinyl-2′-ylmethyl]-amino}-ethyl)-2-oxo-oxazolidin-3-yl]-4H-pyrido[3,2-b][1,4]oxazin-3-one]", "values": [{"measurement": "MIC", "setting": "S. aureus A798", "value": 0.25, "unit": "µg/mL"}, {"measurement": "MIC", "setting": "K. pneumoniae T6474", "value": 1, "unit": "µg/mL"}, {"measurement": "MIC", "setting": "P. aeruginosa ATCC 27853", "value": 1, "unit": "µg/mL"}, {"measurement": "MIC", "setting": "E. coli ATCC25922", "value": 0.5, "unit": "µg/mL"}]}
{"molecule": "CN1CC[C@H](Oc2cccc(-c3cccc(CNCC[C@H]4CN(c5ccc6c(n5)NC(=O)CO6)C(=O)O4)n3)n2)C1", "note": "[Example $129, 6-[(S)-5-(2-{[6′-((S)-1-methyl-pyrrolidin-3-yloxy)-[2,2′]bipyridinyl-6-ylmethyl]-amino}-ethyl)-2-oxo-oxazolidin-3-yl]-4H-pyrido[3,2-b][1,4]oxazin-3-one]", "values": [{"measurement": "MIC", "setting": "S. aureus A798", "value": 2, "unit": "µg/mL"}, {"measurement": "MIC", "setting": "K. pneumoniae T6474", "value": 4, "unit": "µg/mL"}, {"measurement": "MIC", "setting": "P. aeruginosa ATCC 27853", "value": 8, "unit": "µg/mL"}, {"measurement": "MIC", "setting": "E. coli ATCC25922", "value": 4, "unit": "µg/mL"}]}
{"molecule": "CN1CCC[C@H]1COc1cccc(-c2cccc(CNCC[C@H]3CN(c4ccc5c(n4)NC(=O)CO5)C(=O)O3)c2)n1", "note": "[Example $130, 6-[(S)-5-(2-{3-[6-((S)-1-methyl-pyrrolidin-2-ylmethoxy)-pyridin-2-yl]-benzylamino}-ethyl)-2-oxo-oxazolidin-3-yl]-4H-pyrido[3,2-b][1,4]oxazin-3-one]", "values": [{"measurement": "MIC", "setting": "S. aureus A798", "value": 0.25, "unit": "µg/mL"}, {"measurement": "MIC", "setting": "K. pneumoniae T6474", "value": 2, "unit": "µg/mL"}, {"measurement": "MIC", "setting": "P. aeruginosa ATCC 27853", "value": 4, "unit": "µg/mL"}, {"measurement": "MIC", "setting": "E. coli ATCC25922", "value": 1, "unit": "µg/mL"}]}
{"molecule": "C[C@H]1C[C@H](Oc2cccc(-c3cccc(CNCC[C@H]4CN(c5ccc6c(n5)NC(=O)CO6)C(=O)O4)c3)n2)CN1", "note": "[Example $131, 6-[(S)-5-(2-{3-[6-((3S,5S)-5-methyl-pyrrolidin-3-yloxy)-pyridin-2-yl]-benzylamino}-ethyl)-2-oxo-oxazolidin-3-yl]-4H-pyrido[3,2-b][1,4]oxazin-3-one]", "values": [{"measurement": "MIC", "setting": "S. aureus A798", "value": 0.25, "unit": "µg/mL"}, {"measurement": "MIC", "setting": "K. pneumoniae T6474", "value": 1, "unit": "µg/mL"}, {"measurement": "MIC", "setting": "P. aeruginosa ATCC 27853", "value": 0.5, "unit": "µg/mL"}, {"measurement": "MIC", "setting": "E. coli ATCC25922", "value": 0.5, "unit": "µg/mL"}]}
